Measurements published in US20260242478A1, “ANTIBODIES FOR TARGETING PSMA AND CD28 AND USES THEREOF” (Janux Therapeutics, Inc., priority 2023, published 2026).
Each block holds one substance with its values, some of them ahead of it.

Columns and labels:
[1] = biological target: PSMA Fab (SEQ ID NOs: 19, 20) binding to the PSMA antigen; assay: Inhibition of PSMA Fab binding to PSMA by peptides, competition ELISA (incl. alanine scanning); design: key to Mutation Status: tolerant (T); somewhat tolerant (ST); intolerant (IT)
PSMA Fab (SEQ ID NOs: 19, 20) binding to the PSMA antigen, sequence (as listed by the source): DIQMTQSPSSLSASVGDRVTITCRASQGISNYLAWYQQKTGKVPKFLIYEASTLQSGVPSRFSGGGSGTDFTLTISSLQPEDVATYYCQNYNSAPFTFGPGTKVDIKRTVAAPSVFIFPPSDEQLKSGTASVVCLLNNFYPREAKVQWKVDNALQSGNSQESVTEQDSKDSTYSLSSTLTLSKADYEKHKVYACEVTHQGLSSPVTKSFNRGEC
PSMA Fab (SEQ ID NOs: 19, 20) binding to the PSMA antigen, sequence (as listed by the source): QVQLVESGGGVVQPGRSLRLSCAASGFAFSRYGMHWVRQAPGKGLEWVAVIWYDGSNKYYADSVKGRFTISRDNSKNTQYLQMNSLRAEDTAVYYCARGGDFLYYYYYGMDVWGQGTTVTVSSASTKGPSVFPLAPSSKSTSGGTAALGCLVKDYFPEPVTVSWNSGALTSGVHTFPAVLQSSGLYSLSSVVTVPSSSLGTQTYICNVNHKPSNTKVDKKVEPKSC
PSMA Fab (SEQ ID NOs: 19, 20) binding to the PSMA antigen, sequence (Q04609 whole entry partner): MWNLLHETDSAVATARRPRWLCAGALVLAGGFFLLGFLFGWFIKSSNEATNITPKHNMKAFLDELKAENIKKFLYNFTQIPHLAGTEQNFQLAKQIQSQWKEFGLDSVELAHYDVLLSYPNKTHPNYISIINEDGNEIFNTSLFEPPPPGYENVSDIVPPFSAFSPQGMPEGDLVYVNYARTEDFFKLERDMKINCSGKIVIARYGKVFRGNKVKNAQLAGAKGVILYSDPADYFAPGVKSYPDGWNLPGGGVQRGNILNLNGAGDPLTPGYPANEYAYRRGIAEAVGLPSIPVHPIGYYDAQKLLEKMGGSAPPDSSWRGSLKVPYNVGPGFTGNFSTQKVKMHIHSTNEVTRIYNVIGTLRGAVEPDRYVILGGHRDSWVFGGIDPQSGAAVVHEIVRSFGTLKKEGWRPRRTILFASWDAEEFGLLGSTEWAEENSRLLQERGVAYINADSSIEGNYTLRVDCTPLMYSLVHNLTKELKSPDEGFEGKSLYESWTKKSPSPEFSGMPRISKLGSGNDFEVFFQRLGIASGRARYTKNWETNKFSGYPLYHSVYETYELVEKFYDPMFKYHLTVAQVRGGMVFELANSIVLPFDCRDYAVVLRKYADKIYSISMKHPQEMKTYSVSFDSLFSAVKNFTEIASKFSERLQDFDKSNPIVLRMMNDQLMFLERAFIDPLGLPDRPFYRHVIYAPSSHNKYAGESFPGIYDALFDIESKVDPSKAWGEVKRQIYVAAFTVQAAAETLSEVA
Protocol: PSMA Fab fixed at 0.3 nanomolar (nM) concentration was pre-incubated with 0-100 micromolar (μM) titrated peptides. After a short pre-incubation period, the mixture of titrated peptide with fixed PSMA Fab were added to the PSMA antigen coated plates. After a short incubation on the plates, bound PSMA Fab was detected with a standard horse radish peroxidase conjugated secondary antibody.
The tables also designate each alanine mutation as tolerant (T), somewhat tolerant (ST), or intolerant (IT) based on changes in binding inhibition ability relative to the non-mutated peptide. Cys-5 and Cys-11 of peptide-179 and peptide-180 were not mutated.

[2] = biological target: PSMA Fab (SEQ ID NOs: 19, 20); assay: PSMA Fab binding to peptides, ELISA; conditions: PSMA Fab binding to biotinylated peptide, ELISA
Protocol: Peptides of Table 9 were evaluated for their ability to bind to PSMA Fab in a standard enzyme linked immunosorbent assay (ELISA) format. […] PSMA Fab diluted in buffer was then added to the peptide captured plates. Bound antibody was detected using a standard horse radish peroxidase conjugate secondary antibody.

[3] = biological target: anti-CD28 Fab (SEQ ID NOs: 696, 697); assay: anti-CD28 Fab binding to peptides, ELISA; conditions: for EC50: anti-CD28 Fab
anti-CD28 Fab (SEQ ID NOs: 696, 697), sequence (as listed by the source): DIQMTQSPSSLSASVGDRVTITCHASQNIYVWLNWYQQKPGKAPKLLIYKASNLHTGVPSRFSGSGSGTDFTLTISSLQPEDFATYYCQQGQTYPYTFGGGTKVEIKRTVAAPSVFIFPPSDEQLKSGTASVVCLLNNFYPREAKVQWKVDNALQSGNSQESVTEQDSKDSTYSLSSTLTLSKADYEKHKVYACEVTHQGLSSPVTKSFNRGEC
anti-CD28 Fab (SEQ ID NOs: 696, 697), sequence (as listed by the source): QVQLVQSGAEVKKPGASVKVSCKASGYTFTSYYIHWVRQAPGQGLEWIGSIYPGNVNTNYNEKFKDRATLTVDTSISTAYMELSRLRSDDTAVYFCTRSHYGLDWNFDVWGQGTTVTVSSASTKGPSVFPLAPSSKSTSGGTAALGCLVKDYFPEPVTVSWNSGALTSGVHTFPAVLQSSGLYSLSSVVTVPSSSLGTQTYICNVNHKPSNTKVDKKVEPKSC

[4] = biological target: anti-CD28 scFv (disulfide) (SEQ ID NO: 10); assay: anti-CD28 scFv (disulfide) binding to peptides, ELISA; conditions: Table 27
anti-CD28 scFv (disulfide) (SEQ ID NO: 10), sequence (as listed by the source): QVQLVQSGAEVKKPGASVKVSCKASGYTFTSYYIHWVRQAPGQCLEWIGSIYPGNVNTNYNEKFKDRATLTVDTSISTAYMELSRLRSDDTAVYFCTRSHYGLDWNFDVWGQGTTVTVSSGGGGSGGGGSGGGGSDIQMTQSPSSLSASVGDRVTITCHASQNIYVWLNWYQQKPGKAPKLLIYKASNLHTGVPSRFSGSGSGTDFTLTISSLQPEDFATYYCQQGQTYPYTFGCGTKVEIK
Protocol: Peptides were evaluated for their ability to bind to ant-CD28 Fab (SEQ ID NOs: 696.697) or anti-CD28 scFv (disulfide) (SEQ ID NO: 10) in a standard ELISA format as described above.

[5] = tested on: anti-CD28 Fab (SEQ ID NOs: 696, 697); assay: Kinetic binding of peptides to anti-CD28 Fab, BLI; conditions: for Off rate t½: Table 26; for kdis / kon: Table 30, BLI
[6] = Table 38, PSMA Fab fixed at 0.3 nM, peptide 0-100 μM
[7] = Table 39, PSMA Fab fixed at 0.3 nM, peptide 0-100 μM

Substance: MEYCSFHRFTCVLW [Peptide-183]
IC50 [1, 6]: > 100000 nM

Substance: MEYCSFHRFTCVLW [Peptide-193]
IC50 [1, 7]: > 100000 nM

Substance: PDCHTILFKPWCVR [Peptide-90]
EC50 ([3]; Table 24): > 1000 nM | EC50 [4]: > 1000 nM

Substance: PDCQTILFKPWCVR [Peptide-78]
EC50 ([3]; Table 24): > 1000 nM | EC50 [4]: > 1000 nM

Substance: PLCGTEEVWWECRL [Peptide-197]
IC50 [1, 7]: > 100000 nM

Substance: Peptide-2687 (LMAWCTPRWMCAAE)
Mutation Status ([1]; Table 40, alanine scanning of Peptide-179, change in binding inhibition relative to non-mutated peptide): ST

Substance: VEVKCFPLWFCVGL [Peptide-275]
IC50 ([1]; Table 42, SAR guided optimization phage library of peptide-180): > 100000 nM

Substance: WCWDYKLWVPMTCP [Peptide-85]
EC50 ([3]; Table 24): > 1000 nM | EC50 [4]: > 1000 nM

Substance: WCWDYKLWVPTQCP [Peptide-81]
EC50 ([3]; Table 24): > 1000 nM | EC50 [4]: > 1000 nM

Substance: WCWDYREWVPMTCP [Peptide-82]
EC50 ([3]; Table 24): > 1000 nM | EC50 [4]: > 1000 nM

Substance: WCWVQDDRRHVVCG [Peptide-201]
IC50 [1, 7]: > 100000 nM

Substance: WCWYYREWVPMTCP [Peptide-88]
EC50 ([3]; Table 24): > 1000 nM | EC50 [4]: > 1000 nM

Substance: WECLKYTEANACTY [Peptide-76]
EC50 ([3]; Table 24): > 1000 nM | EC50 [4]: > 1000 nM

Substance: WICDKSGSIMLCRA [Peptide-91]
EC50 ([3]; Table 24): > 1000 nM | EC50 [4]: > 1000 nM

Substance: YCAGHAWQYINKCL [Peptide-87]
binding to the anti-CD28 Fab [3]: strong binding | EC50 ([3]; Table 24): 49 nM | EC50 ([3]; Table 26): 30.6 nM | EC50 [4]: 156 nM | Off rate t½ [5]: 42 s | kdis [5]: 0.0202 s⁻¹ | kon [5]: 10000 M⁻¹ s⁻¹

Substance: YCAGHSPINIGKCL [Peptide-84]
EC50 ([3]; Table 24): 337 nM | EC50 [4]: > 1000 nM

Substance: YCAGMSTIQLWLKC [Peptide-94]
EC50 ([3]; Table 24): > 1000 nM | EC50 [4]: > 1000 nM

Substance: YCEGHAPEYIAKCL [Peptide-121]
EC50 ([3]; Table 26): 7.1 nM | kdis [5]: 0.028 s⁻¹ | kon [5]: 33700 M⁻¹ s⁻¹

Substance: YCEGHLPEYIEKCL [Peptide-120]
EC50 ([3]; Table 26): 3.1 nM | kdis [5]: 0.0239 s⁻¹ | kon [5]: 25800 M⁻¹ s⁻¹

Substance: YCEGHLPEYIQKCL [Peptide-134]
Off rate t½ [5]: 54 s | kdis [5]: 0.0115 s⁻¹

Substance: YCEGHLPEYIWKCL [Peptide-135]
EC50 ([3]; Table 26): 2.1 nM | Off rate t½ [5]: 54 s

Substance: YCEGHLPEYLAKCL [Peptide-127]
EC50 ([3]; Table 26): 1.7 nM | kdis [5]: 0.0118 s⁻¹

Substance: YCEGHLPEYREKCL [Peptide-126]
kdis [5]: 0.0191 s⁻¹

Substance: YCEGHLPEYRNKCL [Peptide-132]
EC50 ([3]; Table 26): 3.2 nM | kdis [5]: 0.0138 s⁻¹

Substance: YCWVDADMWLIFRC [Peptide-199]
IC50 [1, 7]: > 100000 nM

Substance: YWSCFQIPFTCFYF [Peptide-75]
EC50 ([3]; Table 24): > 1000 nM | EC50 [4]: > 1000 nM

Substance: YWYCSPSIVRCVLV [Peptide-89]
EC50 ([3]; Table 24): > 1000 nM | EC50 [4]: > 1000 nM

More lines, main results first:

EC50 ([2]; Table 37): > 1000 nM
Substance: NAHCWLWVPAHCRV [Peptide-167]
IC50 ([1]; Table 37, PSMA Fab fixed at 0.3 nM, peptide 0-100 μM): > 100000 nM

EC50 ([2]; Table 37): > 1000 nM
Substance: NCFFAADIHWNFCT [Peptide-169]

EC50 ([2]; Table 37): > 1000 nM
Substance: NCWWHDFRAGHVVC [Peptide-161]

EC50 ([2]; Table 37): > 1000 nM
Substance: PDCVYHSFWGYSCR [Peptide-178]

EC50 ([2]; Table 38): 3 nM
Substance: PELRCVPFWMCSFN [Peptide-181]

EC50 ([2]; Table 37): > 1000 nM
Substance: PLCGTEEVWWECRL [Peptide-166]

EC50 ([2]; Table 37): > 1000 nM
Substance: SCFSFARLEVVPCD [Peptide-159]

EC50 ([2]; Table 37): > 1000 nM
Substance: SCGWLRGEEFGWWC [Peptide-177]

EC50 ([2]; Table 38): > 3000 nM
Substance: SCGWLRGEEFGWWC [Peptide-190]
IC50 [1, 6]: > 100000 nM

EC50 ([2]; Table 37): > 1000 nM
Substance: SIPCIPRDWLCPIK [Peptide-163]

EC50 ([2]; Table 38): > 3000 nM
Substance: SIPCIPRDWLCPIK [Peptide-182]
IC50 [1, 6]: > 100000 nM

EC50 ([2]; Table 37): > 1000 nM
Substance: TCLRFADLAIIHCD [Peptide-160]

Binding EC50 ([2]; Table 37): high background
Substance: YECHQGLFHRWCVN [Peptide-158]

EC50 ([2]; Table 38): > 3000 nM
Substance: YECHQGLFHRWCVN [Peptide-185]
